Numbers after ± are expanded uncertainties.
Assay: xn = mol fraction of the nth substance listed
Conditions: 100 kPa, Liquid; for speed of sound: Frequency=3 MHz, Sing-around technique in a fixed-path interferometer; for mass density: Vibrating tube method

With `CCCC(C)=O` [pentan-2-one] + CN(C)C=O the speed of sound (293.15 K, x2 = 0) was 1232.4 ± 2.3 m/s, the speed of sound (293.15 K, x2 = 0.1141) was 1254.3 ± 2.2 m/s and the speed of sound (293.15 K, x2 = 0.1516) was 1261.7 ± 2.2 m/s. For the same molecule, the speed of sound (293.15 K, x2 = 0.2063) was 1273 ± 2.1 m/s, the speed of sound (293.15 K, x2 = 0.2588) was 1284 ± 2 m/s and the speed of sound (293.15 K, x2 = 0.3089) was 1294.7 ± 2 m/s. The speed of sound (293.15 K, x2 = 0.3594) was 1303.2 ± 1.9 m/s, the speed of sound (293.15 K, x2 = 0.4006) was 1315.3 ± 1.9 m/s and the speed of sound (293.15 K, x2 = 0.4488) was 1326.3 ± 1.9 m/s. It also gave a speed of sound (293.15 K, x2 = 0.4999) of 1338.5 ± 1.8 m/s, a speed of sound (293.15 K, x2 = 0.5466) of 1350 ± 1.8 m/s and a speed of sound (293.15 K, x2 = 0.5987) of 1363.1 ± 1.7 m/s. The speed of sound (293.15 K, x2 = 0.6581) was 1378.4 ± 1.7 m/s, the speed of sound (293.15 K, x2 = 0.7528) was 1404.2 ± 1.6 m/s and the speed of sound (293.15 K, x2 = 0.8029) was 1418.1 ± 1.6 m/s. The speed of sound (293.15 K, x2 = 0.8461) was 1430.7 ± 1.6 m/s, the speed of sound (293.15 K, x2 = 0.9017) was 1446.8 ± 1.6 m/s and the speed of sound (293.15 K, x2 = 0.9496) was 1460.9 ± 1.5 m/s. For the same molecule, the mass density (293.15 K, x2 = 0) was 806.83 ± 2 kg/m3, the mass density (293.15 K, x2 = 0.1141) was 819.616 ± 2 kg/m3 and the mass density (293.15 K, x2 = 0.1516) was 823.961 ± 2 kg/m3. It also gave a mass density (293.15 K, x2 = 0.2063) of 830.491 ± 2.1 kg/m3, a mass density (293.15 K, x2 = 0.2588) of 836.933 ± 2.1 kg/m3 and a mass density (293.15 K, x2 = 0.3089) of 843.115 ± 2.1 kg/m3. It also gave a mass density (293.15 K, x2 = 0.3594) of 849.625 ± 2.1 kg/m3, a mass density (293.15 K, x2 = 0.4006) of 855.077 ± 2.1 kg/m3 and a mass density (293.15 K, x2 = 0.4488) of 861.489 ± 2.1 kg/m3. For the same molecule, the mass density (293.15 K, x2 = 0.4999) was 868.584 ± 2.1 kg/m3, the mass density (293.15 K, x2 = 0.5466) was 875.212 ± 2.1 kg/m3 and the mass density (293.15 K, x2 = 0.5987) was 882.775 ± 2.1 kg/m3. The mass density (293.15 K, x2 = 0.6581) was 891.66 ± 2.2 kg/m3, the mass density (293.15 K, x2 = 0.7528) was 906.494 ± 2.2 kg/m3 and the mass density (293.15 K, x2 = 0.8029) was 914.576 ± 2.2 kg/m3. The mass density (293.15 K, x2 = 0.8461) was 921.84 ± 2.2 kg/m3, the mass density (293.15 K, x2 = 0.9017) was 931.277 ± 2.3 kg/m3 and the mass density (293.15 K, x2 = 0.9496) was 939.704 ± 2.3 kg/m3. The speed of sound (298.15 K, x2 = 0) was 1211.9 ± 2.3 m/s, the speed of sound (298.15 K, x2 = 0.0568) was 1222.8 ± 2.3 m/s and the speed of sound (298.15 K, x2 = 0.1) was 1231.3 ± 2.2 m/s. It also gave a speed of sound (298.15 K, x2 = 0.1526) of 1241.7 ± 2.1 m/s, a speed of sound (298.15 K, x2 = 0.1895) of 1249.2 ± 2.1 m/s and a speed of sound (298.15 K, x2 = 0.2545) of 1262.9 ± 2 m/s. The speed of sound (298.15 K, x2 = 0.3298) was 1279.3 ± 2 m/s, the speed of sound (298.15 K, x2 = 0.3502) was 1283.9 ± 1.9 m/s and the speed of sound (298.15 K, x2 = 0.3956) was 1294 ± 1.9 m/s. The speed of sound (298.15 K, x2 = 0.4567) was 1308.5 ± 1.8 m/s, the speed of sound (298.15 K, x2 = 0.5084) was 1320.8 ± 1.8 m/s and the speed of sound (298.15 K, x2 = 0.557) was 1332.9 ± 1.7 m/s. For the same molecule, the speed of sound (298.15 K, x2 = 0.6022) was 1344.4 ± 1.7 m/s, the speed of sound (298.15 K, x2 = 0.6448) was 1355.5 ± 1.7 m/s and the speed of sound (298.15 K, x2 = 0.7117) was 1373.4 ± 1.6 m/s. The speed of sound (298.15 K, x2 = 0.7504) was 1384 ± 1.6 m/s, the speed of sound (298.15 K, x2 = 0.8027) was 1398.7 ± 1.6 m/s and the speed of sound (298.15 K, x2 = 0.849) was 1412.1 ± 1.6 m/s. It also gave a speed of sound (298.15 K, x2 = 0.9019) of 1427.6 ± 1.5 m/s, a speed of sound (298.15 K, x2 = 0.9429) of 1440.1 ± 1.5 m/s and a mass density (298.15 K, x2 = 0) of 801.99 ± 2 kg/m3. The mass density (298.15 K, x2 = 0.0568) was 808.267 ± 2 kg/m3, the mass density (298.15 K, x2 = 0.1) was 813.221 ± 2 kg/m3 and the mass density (298.15 K, x2 = 0.1526) was 819.25 ± 2 kg/m3. It also gave a mass density (298.15 K, x2 = 0.1895) of 823.621 ± 2 kg/m3, a mass density (298.15 K, x2 = 0.2545) of 831.549 ± 2 kg/m3 and a mass density (298.15 K, x2 = 0.3298) of 841.051 ± 2.1 kg/m3. It also gave a mass density (298.15 K, x2 = 0.3502) of 843.666 ± 2.1 kg/m3, a mass density (298.15 K, x2 = 0.3956) of 849.557 ± 2.1 kg/m3 and a mass density (298.15 K, x2 = 0.4567) of 857.796 ± 2.1 kg/m3. It also gave a mass density (298.15 K, x2 = 0.5084) of 865.012 ± 2.1 kg/m3, a mass density (298.15 K, x2 = 0.557) of 871.899 ± 2.1 kg/m3 and a mass density (298.15 K, x2 = 0.6022) of 878.552 ± 2.1 kg/m3. For the same molecule, the mass density (298.15 K, x2 = 0.6448) was 884.967 ± 2.1 kg/m3, the mass density (298.15 K, x2 = 0.7117) was 895.208 ± 2.2 kg/m3 and the mass density (298.15 K, x2 = 0.7504) was 901.333 ± 2.2 kg/m3. The mass density (298.15 K, x2 = 0.8027) was 909.784 ± 2.2 kg/m3, the mass density (298.15 K, x2 = 0.849) was 917.57 ± 2.2 kg/m3 and the mass density (298.15 K, x2 = 0.9019) was 926.592 ± 2.2 kg/m3. For the same molecule, the mass density (298.15 K, x2 = 0.9429) was 933.872 ± 2.3 kg/m3, the speed of sound (303.15 K, x2 = 0) was 1191.7 ± 2.3 m/s and the speed of sound (303.15 K, x2 = 0.0581) was 1203 ± 2.2 m/s. For the same molecule, the speed of sound (303.15 K, x2 = 0.1088) was 1212.9 ± 2.2 m/s, the speed of sound (303.15 K, x2 = 0.16) was 1223.3 ± 2.1 m/s and the speed of sound (303.15 K, x2 = 0.2044) was 1232.5 ± 2.1 m/s. For the same molecule, the speed of sound (303.15 K, x2 = 0.262) was 1244.6 ± 2 m/s, the speed of sound (303.15 K, x2 = 0.3046) was 1253.9 ± 2 m/s and the speed of sound (303.15 K, x2 = 0.3506) was 1264.1 ± 1.9 m/s. It also gave a speed of sound (303.15 K, x2 = 0.4014) of 1275.7 ± 1.9 m/s, a speed of sound (303.15 K, x2 = 0.482) of 1294.7 ± 1.8 m/s and a speed of sound (303.15 K, x2 = 0.5006) of 1299.1 ± 1.8 m/s. The speed of sound (303.15 K, x2 = 0.5407) was 1309 ± 1.8 m/s.

— the NIST ThermoML archive (doi:10.1016/j.jct.2016.02.016)
